From patent US9676714B2, “Sulfonylindole derivatives and method for preparing the same” (Daewoong Pharmaceutical Co., Ltd., priority 2013, dated 2017) come the findings set out here.

Structures can show the parent of a compound that is named as a salt.

T1 sequence (P19156 whole entry): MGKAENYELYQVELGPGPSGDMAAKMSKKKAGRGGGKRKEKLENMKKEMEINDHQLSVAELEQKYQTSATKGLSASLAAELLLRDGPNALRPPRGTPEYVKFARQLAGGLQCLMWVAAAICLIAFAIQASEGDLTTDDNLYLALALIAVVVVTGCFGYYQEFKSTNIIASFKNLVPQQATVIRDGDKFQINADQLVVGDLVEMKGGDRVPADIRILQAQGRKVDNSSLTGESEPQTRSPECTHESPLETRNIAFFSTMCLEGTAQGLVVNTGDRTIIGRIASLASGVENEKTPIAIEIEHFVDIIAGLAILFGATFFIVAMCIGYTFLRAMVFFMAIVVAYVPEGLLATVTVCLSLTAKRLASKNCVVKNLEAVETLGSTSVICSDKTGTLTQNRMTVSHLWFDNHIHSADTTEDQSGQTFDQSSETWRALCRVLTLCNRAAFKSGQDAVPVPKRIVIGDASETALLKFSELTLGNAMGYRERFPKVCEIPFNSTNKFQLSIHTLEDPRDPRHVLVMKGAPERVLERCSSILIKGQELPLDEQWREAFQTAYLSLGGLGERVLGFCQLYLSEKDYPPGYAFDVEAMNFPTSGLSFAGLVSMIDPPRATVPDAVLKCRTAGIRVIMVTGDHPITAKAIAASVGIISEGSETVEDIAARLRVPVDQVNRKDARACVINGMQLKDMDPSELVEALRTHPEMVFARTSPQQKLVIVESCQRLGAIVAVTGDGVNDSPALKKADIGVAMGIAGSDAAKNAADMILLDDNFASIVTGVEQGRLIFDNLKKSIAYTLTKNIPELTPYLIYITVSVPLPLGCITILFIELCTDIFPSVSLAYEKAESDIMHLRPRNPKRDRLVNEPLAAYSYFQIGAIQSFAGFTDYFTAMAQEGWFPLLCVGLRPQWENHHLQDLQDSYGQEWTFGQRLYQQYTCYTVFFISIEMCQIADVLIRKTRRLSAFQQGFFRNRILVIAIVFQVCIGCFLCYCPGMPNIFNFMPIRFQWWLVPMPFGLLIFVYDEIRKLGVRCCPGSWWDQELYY
T1 sequence (P18434 whole entry partner): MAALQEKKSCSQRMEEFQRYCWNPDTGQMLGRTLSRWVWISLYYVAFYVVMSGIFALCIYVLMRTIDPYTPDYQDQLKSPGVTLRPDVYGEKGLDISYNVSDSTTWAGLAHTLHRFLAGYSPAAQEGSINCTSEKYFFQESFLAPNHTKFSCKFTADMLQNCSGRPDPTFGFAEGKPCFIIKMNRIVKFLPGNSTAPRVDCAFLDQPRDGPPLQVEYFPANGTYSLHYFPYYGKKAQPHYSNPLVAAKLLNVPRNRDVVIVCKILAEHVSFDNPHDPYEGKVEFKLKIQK

This assay addresses T1, proton pump (H+/K+-ATPase) (Sus scrofa, UniProt P19156).
T1 construct: Gastric vesicles were prepared from hog stomach via centrifugal separation; from tissue; host or cells: hog stomach (gastric vesicles, method of Rabon et al. 1988)
In words: Measurement of inhibitory effects on proton pump (H+/K+-ATPase) activities. The following applies: hog gastric vesicles, K+-specific H+/K+-ATPase activity, Tris-HCl buffer pH 7.4, 37° C. for 40 minutes, malachite green Pi readout. In kind it is biochemical. The procedure:
1) Preparation of Gastric Vesicles
Gastric vesicles were prepared from hog stomach via centrifugal separation (Edd C. Rabon et al., Preparation of Gastric H^+,K^+-ATPase, Methods in enzymology, vol. 157 Academic Press Inc., (1988), pp. 649-654). The protein contents of the thus prepared gastric vesicles were quantitated by Bicinchoninic Acid (BCA) kit.
2) Measurement of Inhibitory Effects on Proton Pump (H^+/K^+-ATPase) Activities
The inhibitory effects of the compounds of the present invention against proton pump activities were measured using a 96-well plate. In this assay, the K^+-specific H^+/K^+-ATPase activities were calculated based on the difference between the H^+/K^+-ATPase activity in the presence of K^+ and that in the absence of K. In the 96-well plate, 0.5% dimethyl sulfoxide (DMSO) in buffer was added to the negative and positive control groups, and the diluted compounds of the present invention were added to the test groups. All assays were performed in a reaction volume of 100 μl at room temperature. The reaction buffer solution (60 mmol/l Tris-HCl buffer, pH 7.4) including the hog gastric vesicles was added with DMSO and the compounds at various concentrations, and then further added with 10 μl of 10 mmol/1 adenosine triphosphate Tris buffer solution (60 mmol/l Tris-HCl buffer, pH 7.4) to initiate an enzyme reaction. […] The amount of monophosphate (Pi) in the reaction was measured at 570 nm using a micro plate reader (FLUOstar Omega, BMG LABTECH). The inhibition rates (%) were determined from the activity values of control groups and those of test compounds at various concentrations, and the […] of the test compounds were calculated based on the respective inhibition value (%) using the Logistic 4-parameter function of Sigmaplot 8.0 program.
For `CNCc1cn(S(=O)(=O)c2cccnc2)c2cc(Nc3ccc(OC)cc3C(F)(F)F)ccc12` [Example 51, N-(4-methoxy-2-(trifluoromethyl)phenyl)-3-((methylamino)methyl)-1-(pyridin-3-ylsulfonyl)-1H-indol-6-amine hydrochloride], the IC50 (as a rule, the concentration needed to halve the response being measured) worked out at 1.2 µM.
For `CNCc1cn(S(=O)(=O)c2cccnc2)c2cc(Nc3ccc(OC(F)(F)F)cc3F)ccc12` [Example 54, N-(2-fluoro-4-(trifluoromethoxy)phenyl)-3-((methylamino)methyl)-1-(pyridin-3-ylsulfonyl)-1H-indol-6-amine hydrochloride] the value was 1.05 µM; for `CNCc1cn(S(=O)(=O)c2cccnc2)c2cc(Nc3ccc(C(=O)OC)cc3Cl)ccc12` [Example 57, methyl 3-chloro-4-((3-((methylamino)methyl)-1-(pyridin-3-ylsulfonyl)-1H-indol-6-yl)amino)benzoate hydrochloride], 0.43 µM.
The value for `CNCc1cn(S(=O)(=O)c2cccnc2)c2cc(Nc3cc(F)ccc3F)ccc12` [Example 58, N-(2,5-difluorophenyl)-3-((methylamino)methyl)-1-(pyridin-3-ylsulfonyl)-1H-indol-6-amine hydrochloride] was 0.41 µM.
For the compound `CNCc1cn(S(=O)(=O)c2cccnc2)c2cc(Nc3cc(C)ccc3F)ccc12` [Example 59, N-(2-fluoro-5-methylphenyl)-3-((methylamino)methyl)-1-(pyridin-3-ylsulfonyl)-1H-indol-6-amine hydrochloride], it took 0.35 µM to reach half-maximal inhibition (IC50).
`CNCc1cn(S(=O)(=O)c2cccnc2)c2cc(Nc3c(F)cccc3F)ccc12` [Example 60, N-(2,6-difluorophenyl)-3-((methylamino)methyl)-1-(pyridin-3-ylsulfonyl)-1H-indol-6-amine hydrochloride]: half-maximal inhibition (IC50) required 2.46 µM.
The value for `CNCc1cn(S(=O)(=O)c2cccnc2)c2cc(Nc3c(C)cccc3Cl)ccc12` [Example 61, N-(2-chloro-6-methylphenyl)-3-((methylamino)methyl)-1-(pyridin-3-ylsulfonyl)-1H-indol-6-amine hydrochloride] was 0.29 µM.
For `CNCc1cn(S(=O)(=O)c2cccnc2)c2cc(Nc3ccc(F)c(F)c3)ccc12` [Example 62, N-(3,4-difluorophenyl)-3-((methylamino)methyl)-1-(pyridin-3-ylsulfonyl)-1H-indol-6-amine hydrochloride] the value was 0.93 µM; for `CNCc1cn(S(=O)(=O)c2cccnc2)c2cc(Nc3cc(OC)cc(OC)c3)ccc12` [Example 63, N-(3,5-dimethoxyphenyl)-3-((methylamino)methyl)-1-(pyridin-3-ylsulfonyl)-1H-indol-6-amine hydrochloride], 1.31 µM; for `CNCc1cn(S(=O)(=O)c2cccnc2)c2cc(Nc3cc(Cl)cc(Cl)c3)ccc12` [Example 64, N-(3,5-dichlorophenyl)-3-((methylamino)methyl)-1-(pyridin-3-ylsulfonyl)-1H-indol-6-amine hydrochloride], 1.84 µM.
The compound `CNCc1cn(S(=O)(=O)c2cccnc2)c2cc(Nc3ccc(F)c(C)c3C)ccc12` [Example 66, N-(4-fluoro-2,3-dimethylphenyl)-3-((methylamino)methyl)-1-(pyridin-3-ylsulfonyl)-1H-indol-6-amine hydrochloride] had an IC50 of 0.27 µM.
`CNCc1cn(S(=O)(=O)c2cccnc2)c2cc(Nc3ccc(F)c(F)c3F)ccc12` [Example 67, 3-((methylamino)methyl)-1-(pyridin-3-ylsulfonyl)-N-(2,3,4-trifluorophenyl)-1H-indol-6-amine hydrochloride] returned an IC50 of 0.38 µM.
On to `CNCc1cn(S(=O)(=O)c2cccnc2)c2cc(Nc3ccc(F)c(OC)c3F)ccc12` [Example 68, N-(2,4-difluoro-3-methoxyphenyl)-3-((methylamino)methyl)-1-(pyridin-3-ylsulfonyl)-1H-indol-6-amine hydrochloride], for which the IC50 stood at 2.39 µM.
With `CCOc1c(F)ccc(Nc2ccc3c(CNC)cn(S(=O)(=O)c4cccnc4)c3c2)c1F` [Example 69, N-(3-ethoxy-2,4-difluorophenyl)-3-((methylamino)methyl)-1-(pyridin-3-ylsulfonyl)-1H-indol-6-amine hydrochloride], inhibition was half-maximal at 2.35 µM (IC50).
In turn, `CNCc1cn(S(=O)(=O)c2cccnc2)c2cc(Nc3ccc(OC)c(F)c3F)ccc12` [Example 70, N-(2,3-difluoro-4-methoxyphenyl)-3-((methylamino)methyl)-1-(pyridin-3-ylsulfonyl)-1H-indol-6-amine hydrochloride] gave an IC50 of 0.3 µM.
For `CCOc1ccc(Nc2ccc3c(CNC)cn(S(=O)(=O)c4cccnc4)c3c2)c(F)c1F` [Example 71, N-(4-ethoxy-2,3-difluorophenyl)-3-((methylamino)methyl)-1-(pyridin-3-ylsulfonyl)-1H-indol-6-amine hydrochloride] the value was 0.43 µM.
For `CNCc1cn(S(=O)(=O)c2cccnc2)c2cc(Nc3cc(F)c(F)cc3C)ccc12` [Example 73, N-(4,5-difluoro-2-methylphenyl)-3-((methylamino)methyl)-1-(pyridin-3-ylsulfonyl)-1H-indol-6-amine hydrochloride] the value was 0.16 µM.
With `CNCc1cn(S(=O)(=O)c2cccnc2)c2cc(Nc3cc(F)c(F)cc3F)ccc12` [Example 74, 3-((methylamino)methyl)-1-(pyridin-3-ylsulfonyl)-N-(2,4,5-trifluorophenyl)-1H-indol-6-amine hydrochloride], the IC50 stood at 0.45 µM.
For `CNCc1cn(S(=O)(=O)c2cccnc2)c2cc(Nc3cc(C)c(Cl)cc3C)ccc12` [Example 75, N-(4-chloro-2,5-dimethylphenyl)-3-((methylamino)methyl)-1-(pyridin-3-ylsulfonyl)-1H-indol-6-amine hydrochloride] the value was 0.29 µM; for `CNCc1cn(S(=O)(=O)c2cccnc2)c2cc(Nc3cc(Cl)c(Cl)cc3Cl)ccc12` [Example 76, 3-((methylamino)methyl)-1-(pyridin-3-ylsulfonyl)-N-(2,4,5-trichlorophenyl)-1H-indol-6-amine hydrochloride], 0.35 µM.
Regarding `CNCc1cn(S(=O)(=O)c2cccnc2)c2cc(Nc3cc(OC)c(Cl)cc3Cl)ccc12` [Example 77, N-(2,4-dichloro-5-methoxyphenyl)-3-((methylamino)methyl)-1-(pyridin-3-ylsulfonyl)-1H-indol-6-amine hydrochloride], the IC50 came out at 0.35 µM.
Compound `CNCc1cn(S(=O)(=O)c2cccnc2)c2cc(Nc3cc(F)c(C(F)(F)F)cc3F)ccc12` [Example 78, N-(2,5-difluoro-4-(trifluoromethyl)phenyl)-3-((methylamino)methyl)-1-(pyridin-3-ylsulfonyl)-1H-indol-6-amine hydrochloride] yielded an IC50 of 2.26 µM.
For `CNCc1cn(S(=O)(=O)c2cccnc2)c2cc(Nc3cc(F)c(Br)cc3F)ccc12` [Example 79, N-(4-bromo-2,5-difluorophenyl)-3-((methylamino)methyl)-1-(pyridin-3-ylsulfonyl)-1H-indol-6-amine hydrochloride] the value was 1.38 µM; for `CNCc1cn(S(=O)(=O)c2cccnc2)c2cc(Nc3c(C)cc(C)cc3C)ccc12` [Example 80, N-mesityl-3-((methylamino)methyl)-1-(pyridin-3-ylsulfonyl)-1H-indol-6-amine hydrochloride], 0.17 µM; for `CNCc1cn(S(=O)(=O)c2cccnc2)c2cc(Nc3c(C)cc(F)cc3C)ccc12` [Example 81, N-(4-fluoro-2,6-dimethylphenyl)-3-((methylamino)methyl)-1-(pyridin-3-ylsulfonyl)-1H-indol-6-amine hydrochloride], 0.31 µM.
For `CNCc1cn(S(=O)(=O)c2cccnc2)c2cc(Nc3c(F)cc(F)cc3F)ccc12` [Example 82, 3-((methylamino)methyl)-1-(pyridin-3-ylsulfonyl)-N-(2,4,6-trifluorophenyl)-1H-indol-6-amine hydrochloride], the IC50 turned out to be 0.45 µM.
For `CNCc1cn(S(=O)(=O)c2cccnc2)c2cc(Nc3c(F)cc(F)cc3Cl)ccc12` [Example 83, N-(2-chloro-4,6-difluorophenyl)-3-((methylamino)methyl)-1-(pyridin-3-ylsulfonyl)-1H-indol-6-amine hydrochloride] the value was 1.03 µM; for `CNCc1cn(S(=O)(=O)c2cccnc2)c2cc(Nc3c(Cl)cc(F)cc3Cl)ccc12` [Example 84, N-(2,6-dichloro-4-fluorophenyl)-3-((methylamino)methyl)-1-(pyridin-3-ylsulfonyl)-1H-indol-6-amine hydrochloride], 0.53 µM.
The value for `CNCc1cn(S(=O)(=O)c2cccnc2)c2cc(Nc3c(C)cc(Cl)cc3C)ccc12` [Example 85, N-(4-chloro-2,6-dimethylphenyl)-3-((methylamino)methyl)-1-(pyridin-3-ylsulfonyl)-1H-indol-6-amine hydrochloride] was 0.37 µM.
